According to patent publication US7148248B2, “Method of treating or inhibiting the development of brain inflammation and sepsis” (priority 2002, dated 2006):
Read-outs that look alike come from different tables or passages of the source.

Tests used:
sepsis = details: cited from earlier work
[1] = test system: ischemia (occlusion of both carotid arteries); test: rat ischemia model, reversible 30 minute occlusion of both carotid arteries followed by reperfusion; format: in vivo; details: 450 mg/kg i.p. 30 minutes before the occlusion
focal cerebral ischemia = details: cited from earlier work
[2] = rats, cited from earlier work
[3] = cited from earlier work
[4] = cited from earlier work; remark: listed apart in the source
[5] = test system: dextran-induced paw edema; test: dextran-induced rat paw edema; format: in vivo
Description: Therefore, it was expected that such a mechanism might also come into play at the central nervous system level.

[6] = test system: interleukin-6 induced leukocyte in CSF; test: interleukin-6 induced white blood cell infiltration into CSF (sepsis model); format: in vivo, dog; details: 300, 500, 1000 mg/kg p.o. 30 minutes before interleukin-6; for three days
Description: TNF-α, interleukin-1 and interleukin-6 produced by activated macrophages at the site of the nociceptive stimuli play a particularly important role in mediating acute-phase inflammation as well as sepsis. In fact, proinflammatory cytokines administered to the outside of the blood brain barrier through the chronically in-dwelling intracerebroventricular catheter attached to an Ommaya reservoir increase white blood cell count (characterized by neutrophilic response and lymphocyte respectively) in the cerebrospinal fluid in dogs. The inflammation induced by interleukin-6, was longer lasting (starting from 2 hours, peak time are 10–24 hours lasting 24–72 hours) than that induced by interleukin-1β and TNF-α. In the present studies presented in the Examples hereinbelow, the inflammation caused by interleukin-6 was used as a sepsis model, measuring the amount of infiltrating white blood cells in the cerebrospinal fluid.

[7] = mice, cited from earlier work
[8] = test system: arachidonic acid-induced brain inflammation; test: brain inflammation induced by arachidonic acid in the subarachnoid space (CSF volume and WBC count in CSF); format: in vivo, rat
Procedure: Male rats, approximately 350–400 g, were anesthetized with sodium pentobarbital at a dose of 50 mg/kg intraperitoneally (i.p.). Animals were then placed in a stereotaxic unit. Fur from the top of the head to neck was shaved. The study area was disinfected with 70% ethanol followed by a 10% providone-iodine solution. Skin and muscle over the cervical cord were dissected until cervical vertebrae were exposed. A hole was made using a 23G3/4 needle passing through the dura via the cisterna magna. One end of a 2–3 mm PE10 cannula (0.011 “I.D., 0.007” thick, 0.024” O.D., 6.5 cm long) was inserted into the subarachnoid space at the cervical cord so as to avoid damage to neuronal tissue (FIG. 3). The cannula was fixed with cyanoacrylic glue to the peripheral tissue. […] The cannula filled with CSF immediately after the cannulation. Air was infused to inject AA to the subarachnoid space. The muscles and skin were closed with surgical staples. The rat was then removed from the stereotaxic unit and placed on a heat pad and continuously monitored. […] If the effects of the anesthesia appeared to be wearing off, an additional 0.05–0.1 ml pentobarbital (50 mg/ml, i.p.) dose was administered. If at any time during the experiment, the animal appeared to be in pain or distress, the study was immediately stopped and the animal was euthanized. In the present study, the volume (μl) of cerebrospinal fluid (CSF) and white blood cell (WBC) counts in CSF was measured every thirty minutes for 11 hours from the same rat. One side of the cannula (PE10) was inserted into the subarachnoid space under pentobarbital anesthesia, avoiding neuronal damage (FIG. 3). If the brain tissue is damaged, the volume of CSF and WBC increases immediately without the administration of arachidonic acid. Since there are no WBC in the CSF in the normal rat, only rats that had no WBC in the CSF immediately after the cannulation were used. Another side of the cannula remained open and was used for the administration of nociceptive stimuli (arachidonic acid, LPS, dextran, etc.) and subsequently for collecting the CSF every thirty minutes during the experiment. The CSF volume was measured using a micropipette and WBC in the CSF were counted by means of a hemacytometer.

For C[C@]12CCC(=O)C=C1CC[C@@H]1[C@@H]2[C@@H](O)C[C@@]2(C)[C@H]1CC[C@]2(O)C(=O)CO [Hydrocortisone], the Effect (sepsis; large dose (100 mg i.v. then 0.18/kg/hr)) is given as “none or worse” and the Effect (sepsis; small dose (100 mg i.v./every 8 hours)) is given as “effective”.

In the case of O=C(Nc1cccc2c(=O)cc(-c3nnn[nH]3)oc12)c1ccc(OCCCCc2ccccc2)cc1 [pranlukast], the survival [1] is given as “One of 4–5 rats survived for one week”, the “effect on death of brain cells” value (focal cerebral ischemia; 0.003-1.0 mg/kg i.p. 30 minutes before MCA occlusion and 2 hours after reperfusion, evaluated 24 hours after reperfusion) is given as “inhibited the death of brain cells” and the most effective dose (focal cerebral ischemia; Zhang et al (2002)) is given as 0.1 mg/kg. The LD50 ([2]; p.o.) was > 2000 mg/kg, the LD50 ([2]; s.c.) was > 2000 mg/kg and the “time the maximum blood concentration was maintained” value ([3]; 20 mg/kg p.o.) was “at least 5 hours”. For the same compound, the “time to maximum blood concentration” value ([3]; 20 mg/kg p.o.) was “within one hour”, the “pranlukast in blood 24 hours after administration” value ([3]; low doses (20 mg/kg p.o.)) was “no pranlukast was observed” and the “behavior, changes in body weight and food intake compared with control group” value ([4]; single 30-1000 mg/kg p.o. and repeated 30-1000 mg/kg/day p.o. for three and six months) was “normal”. The “urine examination and histopathological examinations” value ([4]; single and repeated administration) was “normal”, the “inhibition of dextran-induced paw edema” value ([5]; 450 mg/kg, administered intraperitoneally) was “completely inhibited” and the “inhibition of dextran-caused paw edema” value ([5]; 450 mg/kg, administered orally (FIG. 2)) was “completely inhibited”. The “dose dependence of inhibition of dextran-induced paw edema” value ([5]; rat, in vivo) was “dose-dependent fashion”, the “inhibition of interleukin-6 induced leukocyte in CSF” value [6] was “completely inhibited” and the LD50 ([7]; p.o.) was > 2000 mg/kg. For the same compound, the LD50 ([7]; s.c.) was > 2000 mg/kg, the “effect on brain inflammation caused by a large dose of arachidonic acid” value ([8]; arachidonic acid 6.25 μg/2.0 μl, pranlukast 450 mg/kg p.o.) was “not inhibited by pranlukast (450 mg/kg; p.o.) but was attenuated” and the “time until white blood cell count returned to normal (=zero) after arachidonic acid” value ([8]; arachidonic acid 6.25 μg/2.0 μl, pranlukast 450 mg/kg p.o., 5 days without pranlukast) was 36 h. For the same compound, the “inhibition of the increase of CSF volume” value ([8]; pranlukast 450 mg/kg i.p. thirty minutes before arachidonic acid 3.25 μg/2 μl, n=4) was “completely inhibited” and the “inhibition of inflammation caused by arachidonic acid” value ([8]; pranlukast 450 mg/kg i.p., arachidonic acid 3.25 μg/2 μl) was “completely inhibits”.
